Values of other authors, collected in article PMC9851200, “Multiparameter phenotypic screening for endogenous TFEB and TFE3 translocation identifies novel chemical series modulating lysosome function” (Autophagy, 2022).

Assays:
Design in all cases: method as in original PKIS2 published data
[1] = molecular target: T1, kinases (KINOMEscan panel) (Homo sapiens, UniProt Q9NRM7); conditions: Published KINOMEscan; ref original PKIS2 published data; cited from earlier work
T1 sequence (Q9NRM7 1-1088): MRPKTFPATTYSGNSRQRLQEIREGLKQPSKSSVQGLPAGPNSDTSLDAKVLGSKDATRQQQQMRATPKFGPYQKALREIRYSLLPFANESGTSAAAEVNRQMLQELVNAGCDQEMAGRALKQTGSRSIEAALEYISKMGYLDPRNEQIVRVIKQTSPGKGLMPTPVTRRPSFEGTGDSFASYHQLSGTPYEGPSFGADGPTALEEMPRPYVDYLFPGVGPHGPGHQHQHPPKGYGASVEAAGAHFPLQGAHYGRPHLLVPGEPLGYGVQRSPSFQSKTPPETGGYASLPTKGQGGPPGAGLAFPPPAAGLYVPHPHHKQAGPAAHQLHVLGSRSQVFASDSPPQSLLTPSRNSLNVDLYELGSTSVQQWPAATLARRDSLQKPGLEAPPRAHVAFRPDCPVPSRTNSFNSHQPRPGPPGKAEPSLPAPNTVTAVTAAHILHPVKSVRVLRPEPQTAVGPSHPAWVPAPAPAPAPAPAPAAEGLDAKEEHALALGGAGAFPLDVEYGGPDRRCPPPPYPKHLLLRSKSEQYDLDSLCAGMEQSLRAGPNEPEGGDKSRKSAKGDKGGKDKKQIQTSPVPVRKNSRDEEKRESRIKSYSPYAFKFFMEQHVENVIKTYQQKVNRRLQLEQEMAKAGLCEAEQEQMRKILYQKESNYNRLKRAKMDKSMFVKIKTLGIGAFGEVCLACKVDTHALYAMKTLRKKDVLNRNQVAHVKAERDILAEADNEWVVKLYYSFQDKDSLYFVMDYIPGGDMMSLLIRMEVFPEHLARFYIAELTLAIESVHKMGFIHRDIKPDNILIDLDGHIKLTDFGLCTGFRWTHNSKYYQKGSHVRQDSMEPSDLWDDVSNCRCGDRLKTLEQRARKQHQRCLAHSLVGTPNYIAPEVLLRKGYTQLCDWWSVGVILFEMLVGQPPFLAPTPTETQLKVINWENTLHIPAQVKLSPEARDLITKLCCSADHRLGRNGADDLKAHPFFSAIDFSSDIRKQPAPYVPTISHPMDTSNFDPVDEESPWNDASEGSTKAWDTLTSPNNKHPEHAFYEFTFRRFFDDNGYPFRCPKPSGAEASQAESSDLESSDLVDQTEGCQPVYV

[2] = molecular target: T2, kinases (KINOMEscan panel) (Homo sapiens, UniProt Q8NG66); conditions: Published KINOMEscan; ref original PKIS2 published data; cited from earlier work
T2 sequence (Q8NG66 1-645): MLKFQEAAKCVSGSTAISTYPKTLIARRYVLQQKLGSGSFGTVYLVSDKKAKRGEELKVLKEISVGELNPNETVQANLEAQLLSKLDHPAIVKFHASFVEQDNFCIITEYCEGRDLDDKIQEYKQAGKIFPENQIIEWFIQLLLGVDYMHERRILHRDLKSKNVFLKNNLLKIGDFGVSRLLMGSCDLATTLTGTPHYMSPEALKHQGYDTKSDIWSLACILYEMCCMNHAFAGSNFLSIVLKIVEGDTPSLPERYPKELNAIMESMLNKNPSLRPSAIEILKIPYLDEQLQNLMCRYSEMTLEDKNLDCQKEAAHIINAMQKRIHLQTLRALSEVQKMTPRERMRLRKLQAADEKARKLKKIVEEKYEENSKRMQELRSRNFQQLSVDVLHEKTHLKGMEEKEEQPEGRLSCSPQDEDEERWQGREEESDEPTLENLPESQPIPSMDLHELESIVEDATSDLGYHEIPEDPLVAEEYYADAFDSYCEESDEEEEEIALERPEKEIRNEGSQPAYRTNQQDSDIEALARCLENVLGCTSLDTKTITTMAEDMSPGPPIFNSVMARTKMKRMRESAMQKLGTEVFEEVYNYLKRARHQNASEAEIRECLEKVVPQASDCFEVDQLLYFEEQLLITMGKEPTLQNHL

[3] = molecular target: kinases (KINOMEscan panel) (Homo sapiens, UniProt Q86Z02); conditions: HIPK1; Published KINOMEscan; ref original PKIS2 published data; cited from earlier work
[4] = molecular target: T3, kinases (KINOMEscan panel) (Homo sapiens, UniProt Q99640); conditions: kinase PKMYT1; Published KINOMEscan; ref original PKIS2 published data; cited from earlier work
T3 sequence (Q99640 1-499): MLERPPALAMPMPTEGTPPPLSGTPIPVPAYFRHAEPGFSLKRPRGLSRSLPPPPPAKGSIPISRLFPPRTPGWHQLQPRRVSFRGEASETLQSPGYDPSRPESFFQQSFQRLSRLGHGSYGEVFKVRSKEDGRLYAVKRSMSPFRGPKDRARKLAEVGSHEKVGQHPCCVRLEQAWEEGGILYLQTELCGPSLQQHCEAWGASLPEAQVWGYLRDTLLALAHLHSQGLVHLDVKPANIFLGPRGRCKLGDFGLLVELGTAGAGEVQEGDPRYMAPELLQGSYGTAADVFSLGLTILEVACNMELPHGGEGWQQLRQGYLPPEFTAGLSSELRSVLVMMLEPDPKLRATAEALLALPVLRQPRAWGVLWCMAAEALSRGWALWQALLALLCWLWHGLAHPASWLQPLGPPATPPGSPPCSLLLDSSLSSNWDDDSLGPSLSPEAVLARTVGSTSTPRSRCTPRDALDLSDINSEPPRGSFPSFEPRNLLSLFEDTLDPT

kinases (KINOMEscan panel) (Homo sapiens, UniProt Q86Z02), sequence (Q86Z02 whole entry): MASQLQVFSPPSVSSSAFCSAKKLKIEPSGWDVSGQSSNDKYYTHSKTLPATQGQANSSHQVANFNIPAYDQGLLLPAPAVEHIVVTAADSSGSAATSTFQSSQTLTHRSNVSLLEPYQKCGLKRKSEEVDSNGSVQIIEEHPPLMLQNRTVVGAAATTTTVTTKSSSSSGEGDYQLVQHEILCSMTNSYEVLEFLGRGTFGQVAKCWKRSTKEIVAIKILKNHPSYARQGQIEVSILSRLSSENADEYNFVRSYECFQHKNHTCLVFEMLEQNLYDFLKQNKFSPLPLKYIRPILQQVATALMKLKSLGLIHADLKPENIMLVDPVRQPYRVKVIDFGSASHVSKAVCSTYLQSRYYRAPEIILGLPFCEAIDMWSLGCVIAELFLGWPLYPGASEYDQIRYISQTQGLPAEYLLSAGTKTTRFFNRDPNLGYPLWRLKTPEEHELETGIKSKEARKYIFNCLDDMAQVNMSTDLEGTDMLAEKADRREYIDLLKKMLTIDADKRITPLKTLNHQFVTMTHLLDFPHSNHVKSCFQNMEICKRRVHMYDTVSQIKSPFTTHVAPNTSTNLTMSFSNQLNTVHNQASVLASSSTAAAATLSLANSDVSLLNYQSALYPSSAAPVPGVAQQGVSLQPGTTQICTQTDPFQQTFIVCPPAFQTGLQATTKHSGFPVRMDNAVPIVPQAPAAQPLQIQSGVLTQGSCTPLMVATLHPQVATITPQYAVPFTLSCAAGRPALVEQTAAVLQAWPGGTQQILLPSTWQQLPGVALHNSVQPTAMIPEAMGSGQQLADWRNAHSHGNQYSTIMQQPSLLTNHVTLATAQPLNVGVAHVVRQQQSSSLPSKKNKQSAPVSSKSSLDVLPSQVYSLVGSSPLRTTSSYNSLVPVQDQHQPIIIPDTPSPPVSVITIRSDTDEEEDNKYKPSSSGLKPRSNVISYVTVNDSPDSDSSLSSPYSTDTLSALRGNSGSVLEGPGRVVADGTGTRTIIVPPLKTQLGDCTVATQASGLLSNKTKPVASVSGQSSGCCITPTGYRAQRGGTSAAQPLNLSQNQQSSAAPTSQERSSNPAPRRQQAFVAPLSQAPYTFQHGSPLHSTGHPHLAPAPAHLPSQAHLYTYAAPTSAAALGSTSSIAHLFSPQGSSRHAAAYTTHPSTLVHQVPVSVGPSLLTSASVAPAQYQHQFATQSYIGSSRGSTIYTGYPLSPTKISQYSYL

## Cc1cccc(-c2nc(Nc3ccncc3)c3ccccc3n2)n1 [NK215]
[1]
  KINOMEscan LATS2: 0
[2]
  KINOMEscan NEK11: 0
[3]
  KINOMEscan HIPK1: 41
[4]
  KINOMEscan PKMYT1: 0
